{"source": "paper PMC6358866", "about": "(International Journal of Molecular Sciences, 2019)", "assay_type_in_all_cases": "cell-based, Staphylococcus aureus", "key": {"[1]": {"test_system": "Staphylococus aureus ATCC 6538 biofilm", "experiment": "Activity against biofilms formed on polystyrene 96-well plates, 24 h exposure, resazurin", "protocol": "Bacterial strains were obtained from the Polish Collection of Microorganisms (Polish Academy of Science, Wroclaw, Poland). […] The bacteria were cultured in a Mueller Hinton Broth II (MHB, Biocorp, Warsaw, Poland) overnight, under aerobic conditions at 37 °C. After incubation, the liquid cultures were centrifuged (2500 rpm for 10 min) and washed with phosphoric buffer (PBS, AppliChem, Darmstadt, Germany) three times and resuspended in fresh MHB II for inoculums appropriate for the performed assays.\nBacterial suspensions were added to 96-well plates (Kartell, Noviglio, Italy) at initial inoculums of ca. 5 × 10^8 CFU/mL and incubated under aerobic conditions with shaking (120 rpm) at 37 °C for 24 h. […] After exposure, the wells were washed three times with PBS and a solution of resazurin (Sigma Aldrich, St. Louis, MO, USA) in MHB II (0.01%) was added. This cell viability reagent is metabolized by bacterial dehydrogenases upon contact with living cells. As a result, the blue dye is reduced to a pink resorufin. After 1.5 h of incubation, the absorbance was measured at 570 and 600 nm using a microplate reader (Thermo Fisher Scientific, Waltham, MA, USA). […] The metabolic activity of bacteria in the samples was measured according to the following formula:\nMetabolic activity (%) = (ΔAbs of sample − ΔAbs of negative control)/(ΔAbs of positive control − ΔAbs of negative control);\nΔAbs = absorbance at 570 nm − absorbance at 600 nm;\nThe presented results are the means of nine results obtained on three different days."}, "[2]": {"test_system": "Staphylococus aureus ATCC 6538 biofilm", "experiment": "Activity against biofilms on 96-well plates after withdrawal of the antimicrobial (additional 24 h in MHB II)", "conditions": "after withdrawal and additional 24 h in MHB II", "protocol": "Bacterial strains were obtained from the Polish Collection of Microorganisms (Polish Academy of Science, Wroclaw, Poland). Three Gram-positive and two Gram-negative strains linked with CL-related infections were chosen for the study (Staphylococus aureus ATCC 6538, Staphylococcus epidermidis ATCC 14990, Pseudomonas aeruginosa ATCC 9027, Escherichia coli ATCC 25922, and Enterococcus faecalis ATCC 29212). The bacteria were cultured in a Mueller Hinton Broth II (MHB, Biocorp, Warsaw, Poland) overnight, under aerobic conditions at 37 °C. […] Bacterial suspensions were added to 96-well plates (Kartell, Noviglio, Italy) at initial inoculums of ca. 5 × 10^8 CFU/mL and incubated under aerobic conditions with shaking (120 rpm) at 37 °C for 24 h. […] After exposure, the wells were washed three times with PBS and a solution of resazurin (Sigma Aldrich, St. […] This cell viability reagent is metabolized by bacterial dehydrogenases upon contact with living cells. As a result, the blue dye is reduced to a pink resorufin. After 1.5 h of incubation, the absorbance was measured at 570 and 600 nm using a microplate reader (Thermo Fisher Scientific, Waltham, MA, USA). […] The procedure was conducted as described in Section 4.3, with the difference that after exposure to antimicrobials, the wells were washed three times with PBS and pure MHB II was added. The samples were incubated for another 24 h (aerobic conditions, 120 rpm shaking, 37 °C). […] The absorbance was measured at the same wave lengths and metabolic activity was calculated according to the formula given in Section 4.3. The presented results are means of nine results obtained on three different days."}, "[3]": {"test_system": "Staphylococus aureus ATCC 6538 biofilm", "experiment": "Effect of the lipopeptide on lens liquids against biofilms on 96-well polystyrene plates", "conditions": "SA biofilm on polystyrene, lipopeptide alone in PBS, 24 h", "protocol": "Bacterial strains were obtained from the Polish Collection of Microorganisms (Polish Academy of Science, Wroclaw, Poland). Three Gram-positive and two Gram-negative strains linked with CL-related infections were chosen for the study (Staphylococus aureus ATCC 6538, Staphylococcus epidermidis ATCC 14990, Pseudomonas aeruginosa ATCC 9027, Escherichia coli ATCC 25922, and Enterococcus faecalis ATCC 29212). The bacteria were cultured in a Mueller Hinton Broth II (MHB, Biocorp, Warsaw, Poland) overnight, under aerobic conditions at 37 °C. […]\nBacterial suspensions were added to 96-well plates (Kartell, Noviglio, Italy) at initial inoculums of ca. 5 × 10^8 CFU/mL and incubated under aerobic conditions with shaking (120 rpm) at 37 °C for 24 h. […] After 1.5 h of incubation, the absorbance was measured at 570 and 600 nm using a microplate reader (Thermo Fisher Scientific, Waltham, MA, USA). […] The metabolic activity of bacteria in the samples was measured according to the following formula:\nPositive controls (100%) were wells with pre-grown biofilms where the MHB II was replaced with pure PBS, while negative controls were wells with pure MHB II (also replaced with PBS). After 24 h of incubation (aerobic conditions, 120 rpm shaking, 37 °C), the solutions were replaced with resazurin in MHB II and the results were read and presented as described in Section 4.3."}}, "data": [{"substance": "(C10)2-KKKK-NH2 [Lipopeptide]", "values": [{"measurement": "reduction in the metabolic activity", "setting": "[1]; SA biofilm on polystyrene, 24 h exposure, 32 mg/L and higher", "result": "over 90%"}, {"measurement": "MBEC 50", "setting": "[1]; lowest concentration reducing metabolic activity by at least 50 ± 5%, polystyrene plate, 24 h exposure in MHB II, resazurin", "result": 8, "unit": "mg/L"}, {"measurement": "MBEC 90", "setting": "[1]; lowest concentration reducing metabolic activity by at least 90 ± 5%, polystyrene plate, 24 h exposure in MHB II, resazurin, mean of nine results", "result": 32, "unit": "mg/L"}, {"measurement": "concentration permanently eliminating living bacterial cells", "setting": "[2]; SA biofilm on polystyrene", "result": 32, "unit": "mg/L"}, {"measurement": "MBEC II 50", "setting": "[2]; lowest concentration giving permanent reduction of metabolic activity by at least 50 ± 5%", "result": 16, "unit": "µg/mL"}, {"measurement": "MBEC II 90", "setting": "[2]; lowest concentration giving permanent reduction of metabolic activity by at least 90 ± 5%", "result": 32, "unit": "µg/mL"}, {"measurement": "concentration at which highly active against biofilm", "setting": "[3]", "result": 32, "unit": "mg/L"}]}]}
